Results published in patent publication US8119633B2, “Substituted sulfonamide compounds” (Gruenenthal GmbH, priority 2007, dated 2012).

Experiments:
[1] = biological target: T1, bradykinin receptor 1 (B1R) of the rat (Rattus norvegicus, UniProt P97583); test: Functional study on the bradykinin receptor 1 (B1R), rat: FLIPR Ca2+ influx assay; format: cell-based; conditions: test substance 10 μM; CHO K1 cells transfected with rat B1R; Des-Arg9-bradykinin at EC80; Ca2+ influx (Fluo-4, FLIPR); read-out: B1R antagonism, rat [10 μM] % inhibition
T1 construct: expressed in transfected cells; host or cells: CHO K1 cells
T1 sequence (P97583 1-337): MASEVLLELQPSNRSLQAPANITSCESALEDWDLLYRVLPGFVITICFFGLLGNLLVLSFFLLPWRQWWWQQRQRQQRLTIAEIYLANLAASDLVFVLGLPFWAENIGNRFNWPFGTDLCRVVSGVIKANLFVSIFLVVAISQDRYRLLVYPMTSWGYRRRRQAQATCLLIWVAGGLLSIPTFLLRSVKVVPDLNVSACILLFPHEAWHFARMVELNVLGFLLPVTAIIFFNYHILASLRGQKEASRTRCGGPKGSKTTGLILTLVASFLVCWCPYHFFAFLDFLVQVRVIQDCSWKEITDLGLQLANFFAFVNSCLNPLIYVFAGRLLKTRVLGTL
From the text: (§1) The agonistic or antagonistic action of substances can be determined on the bradykinin receptor 1 (B1R) of the species human and rat using the following assay. According to this assay, the Ca^2+ influx through the channel is quantified with the aid of a Ca^2+-sensitive dye (Fluo-4 type, Molecular Probes Europe BV, Leiden, Netherlands) using a Fluorescent Imaging Plate Reader (FLIPR, Molecular Devices, Sunnyvale, USA).
(§2) Chinese hamster ovary cells (CHO K1 cells) which have been stably transfected with the human B1R gene (hB1R cells) or with the B1R gene of the rat (rB1R cells) are used. For functional studies, the cells are plated out on black 96-well plates having a clear base (BD Biosciences, Heidelberg, Germany or Greiner, Frickenhausen, Germany) in a density of 20,000-35,000 cells/well. The cells are incubated overnight at 37° C. and with 5% CO2 in culture medium (hB1R cells: Nutrient Mixture Ham's F12, Gibco Invitrogen GmbH, Karlsruhe, Germany or DMEM, Sigma-Aldrich, Taufkirchen, Germany; rB1R cells: D-MEM/F12, Gibco Invitrogen GmbH, Karlsruhe, Germany), with 10 vol. % FBS (fetal bovine serum, Gibco Invitrogen GmbH, Karlsruhe, Germany or PAN Biotech GmbH, Aidenbach, Germany).
(§3) On the following day, the cells are loaded for 60 minutes at 37° C. with 2.13 μM Fluo-4 (Molecular Probes Europe BV, Leiden, Netherlands) in HBSS buffer (Hank's buffered saline solution, Gibco Invitrogen GmbH, Karlsruhe, Germany) with 2.5 mM probenecid (Sigma-Aldrich, Taufkirchen, Germany) and 10 mM HEPES (Sigma-Aldrich, Taufkirchen, Germany). The plates are then washed twice with HBSS buffer, and HBSS buffer additionally containing 0.1% BSA (bovine serum albumin; Sigma-Aldrich, Taufkirchen, Germany), 5.6 mM glucose and 0.05% gelatin (Merck KGaA, Darmstadt, Germany) is added to the plates. After incubation for a further 20 minutes at room temperature, the plates are inserted into the FLIPR for Ca^2+ measurement. Alternatively, washing is carried out with buffer A (15 mM HEPES, 80 mM NaCl, 5 mM KCl, 1.2 mM CaCl2, 0.7 mM MgSO4, 2 g/l glucose, 2.5 mM probenecid) followed by loading with buffer A with added 2.5 μM Fluo-4 and 0.025% Pluronic F127 (Sigma-Aldrich, Taufkirchen, Germany). The cells are then washed twice with buffer A and incubated for 30 minutes at room temperature with buffer A additionally containing 0.05% BSA and 0.05% gelatin and are then inserted into the FLIPR for Ca^2+ measurement.
(§4) The Ca^2+-dependent fluorescence is measured before and after the addition of substances (λex=488 nm, λem=540 nm). Quantification is carried out by measuring the highest fluorescence intensity (FC, fluorescence counts) over time.
(§5) The FLIPR protocol consists of two substance additions. Test substances (10 μM) are first pipetted onto the cells and the Ca^2+ influx is compared with the control (hB1R: Lys-Des-Arg^9-bradykinin>=0.5 nM; rB1R: Des-Arg^9-bradykinin 10 μM). This gives the activation in %, based on the Ca^2+ signal after addition of Lys-Des-Arg^9-bradykinin (>=0.5 nM) or Des-Arg^9-bradykinin (10 μM).
(§6) After 10-20 minutes' incubation, Lys-Des-Arg^9-bradykinin (hB1R) or Des-Arg^9-bradykinin (rB1R) is applied in the concentration of the EC80, and the influx of Ca^2+ is likewise determined.
(§7) Antagonists lead to suppression of the Ca^2+ influx. The % inhibition compared with the maximum achievable inhibition is calculated.
(§8) In order to determine the IC50 value, the substances are added in various concentrations. Duplicate or triplicate determinations (n=2 or n=3) are carried out, and these are repeated in at least one further independent experiment (N>=2).

[2] = biological target: T2, human bradykinin receptor 1 (B1R) (Homo sapiens, UniProt P46663); test: Functional study on the bradykinin receptor 1 (B1R), human: FLIPR Ca2+ influx assay; format: cell-based; conditions: test substance 10 μM; CHO K1 cells transfected with human B1R; Lys-Des-Arg9-bradykinin at EC80; Ca2+ influx (Fluo-4, FLIPR); read-out: B1R antagonism, human [10 μM] % inhibition
T2 construct: expressed in transfected cells; host or cells: CHO K1 cells
T2 sequence (P46663 1-353): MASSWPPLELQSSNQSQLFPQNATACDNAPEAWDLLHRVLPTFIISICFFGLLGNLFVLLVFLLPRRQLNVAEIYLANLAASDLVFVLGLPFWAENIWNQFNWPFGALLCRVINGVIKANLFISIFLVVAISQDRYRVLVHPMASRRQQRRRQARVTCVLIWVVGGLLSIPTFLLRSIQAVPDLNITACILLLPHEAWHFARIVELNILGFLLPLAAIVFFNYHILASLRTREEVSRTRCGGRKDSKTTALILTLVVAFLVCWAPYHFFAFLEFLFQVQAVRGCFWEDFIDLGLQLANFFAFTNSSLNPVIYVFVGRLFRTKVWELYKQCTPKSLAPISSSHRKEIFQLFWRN
From the text: Functional Study on the Human Bradykinin Receptor 1 (B1R)
as §1, §2, §3, §4, §5, §6, §7, §8

CN(C)C(c1ccc(F)cc1)C1CCC(NC(=O)CC2c3ccccc3CCN2S(=O)(=O)c2ccc(Cl)c(Cl)c2)CC1 (stereo not drawn) [Example 27, 2-(2-(3,4-dichlorophenylsulfonyl)-1,2,3,4-tetrahydroisoquinolin-1-yl)-N-(4-((dimethylamino)(4-fluorophenyl)methyl)cyclohexyl)acetamide]
inhibition at 10 µM [1]: 78%
inhibition at 10 µM [2]: 103%

CN(C)C(c1cccc(F)c1)C1CCC(CNC(=O)CC2c3ccccc3CCN2S(=O)(=O)c2ccc(Cl)c(Cl)c2)CC1 (stereo not drawn) [Example 28, 2-[2-(3,4-dichloro-benzenesulfonyl)-1,2,3,4-tetrahydro-isoquinolin-1-yl]-N-{4-[dimethylamino-(3-fluoro-phenyl)-methyl]-cyclohexylmethyl}-acetamide]
inhibition at 10 µM [1]: 34%
inhibition at 10 µM [2]: 26.3%

CN(C)C(c1ccccc1)C1CCC(CNC(=O)CC2c3ccccc3CCN2S(=O)(=O)c2ccc(Cl)c(Cl)c2)CC1 (stereo not drawn) [Example 29, 2-[2-(3,4-dichloro-benzenesulfonyl)-1,2,3,4-tetrahydro-isoquinolin-1-yl]-N-[4-(dimethylamino-phenyl-methyl)-cyclohexylmethyl]-acetamide]
inhibition at 10 µM [1]: 45%
inhibition at 10 µM [2]: 64.5%

CN(C)C(CCc1ccccc1)C1CCC(CNC(=O)CC2c3ccccc3CCN2S(=O)(=O)c2ccc(Cl)c(Cl)c2)CC1 (stereo not drawn) [Example 30, 2-[2-(3,4-dichloro-benzenesulfonyl)-1,2,3,4-tetrahydro-isoquinolin-1-yl]-N-[4-(1-dimethylamino-3-phenyl-propyl)-cyclohexylmethyl]-acetamide]
inhibition at 10 µM [1]: 58%
inhibition at 10 µM [2]: 75.7%

CN(C)C(c1ccc(F)cc1)C1CCC(CNC(=O)CC2c3ccccc3CCN2S(=O)(=O)c2ccc(Cl)c(Cl)c2)CC1 (stereo not drawn) [Example 31, 2-[2-(3,4-dichloro-benzenesulfonyl)-1,2,3,4-tetrahydro-isoquinolin-1-yl]-N-{4-[dimethylamino-(4-fluoro-phenyl)-methyl]-cyclohexylmethyl}-acetamide]
inhibition at 10 µM [1]: 48%
inhibition at 10 µM [2]: 54%

CN(C)C(c1ccc(Cl)cc1)C1CCC(CNC(=O)CC2c3ccccc3CCN2S(=O)(=O)c2ccc(Cl)c(Cl)c2)CC1 (stereo not drawn) [Example 32, N-{4-[(4-chloro-phenyl)-dimethylamino-methyl]-cyclohexylmethyl}-2-[2-(3,4-dichloro-benzenesulfonyl)-1,2,3,4-tetrahydro-isoquinolin-1-yl]-acetamide]
inhibition at 10 µM [1]: 15%
inhibition at 10 µM [2]: 10.7%

CN(C)C(c1ccc(Cl)cc1)C1CCC(CCNC(=O)CC2c3ccccc3CCN2S(=O)(=O)c2ccc(Cl)c(Cl)c2)CC1 (stereo not drawn) [Example 33, N-(2-{4-[(4-chloro-phenyl)-dimethylamino-methyl]-cyclohexyl}-ethyl)-2-[2-(3,4-dichloro-benzenesulfonyl)-1,2,3,4-tetrahydro-isoquinolin-1-yl]-acetamide]
inhibition at 10 µM [1]: 18%
inhibition at 10 µM [2]: 42.2%

CN(C)C(c1cccc(F)c1)C1CCC(CCNC(=O)CC2c3ccccc3CCN2S(=O)(=O)c2ccc(Cl)c(Cl)c2)CC1 (stereo not drawn) [Example 34, 2-[2-(3,4-dichloro-benzenesulfonyl)-1,2,3,4-tetrahydro-isoquinolin-1-yl]-N-(2-{4-[dimethylamino-(3-fluoro-phenyl)-methyl]-cyclohexyl}-ethyl)-acetamide]
inhibition at 10 µM [1]: 41%
inhibition at 10 µM [2]: 71.2%

CN(C)C(c1ccc(F)cc1)C1CCC(CCNC(=O)CC2c3ccccc3CCN2S(=O)(=O)c2ccc(Cl)c(Cl)c2)CC1 (stereo not drawn) [Example 35, 2-[2-(3,4-dichloro-benzenesulfonyl)-1,2,3,4-tetrahydro-isoquinolin-1-yl]-N-(2-{4-[dimethylamino-(4-fluoro-phenyl)-methyl]-cyclohexyl}-ethyl)-acetamide]
inhibition at 10 µM [1]: 49%
inhibition at 10 µM [2]: 79.5%

CN(C)C(c1cccc(F)c1)C1CCC(NC(=O)c2ccccc2N(C)S(=O)(=O)c2ccc(Cl)c(Cl)c2)CC1 (stereo not drawn) [Example 36, 2-[(3,4-dichloro-benzenesulfonyl)-methyl-amino]-N-{4-[dimethylamino-(3-fluoro-phenyl)-methyl]-cyclohexyl}-benzamide]
inhibition at 10 µM [1]: 67%
inhibition at 10 µM [2]: 64.1%

CN(C)C(c1ccc(F)cc1)C1CCC(NC(=O)c2ccccc2N(C)S(=O)(=O)c2ccc(Cl)c(Cl)c2)CC1 (stereo not drawn) [Example 37, 2-[(3,4-dichloro-benzenesulfonyl)-methyl-amino]-N-{4-[dimethylamino-(4-fluoro-phenyl)-methyl]-cyclohexyl}-benzamide]
inhibition at 10 µM [1]: 64%
inhibition at 10 µM [2]: 82.2%

CN(C)C(c1ccccc1)C1CCC(CNC(=O)c2ccccc2N(C)S(=O)(=O)c2ccc(Cl)c(Cl)c2)CC1 (stereo not drawn) [Example 38, 2-[(3,4-dichloro-benzenesulfonyl)-methyl-amino]-N-[4-(dimethylamino-phenylmethyl)-cyclohexylmethyl]-benzamide]
inhibition at 10 µM [1]: 15%
inhibition at 10 µM [2]: 17.9%

CN(C)C(CCc1ccccc1)C1CCC(CNC(=O)c2ccccc2N(C)S(=O)(=O)c2ccc(Cl)c(Cl)c2)CC1 (stereo not drawn) [Example 39, 2-[(3,4-dichloro-benzenesulfonyl)-methyl-amino]-N-[4-(1-dimethylamino-3-phenyl-propyl)-cyclohexylmethyl]-benzamide]
inhibition at 10 µM [1]: 42%
inhibition at 10 µM [2]: 79.3%

CN(C)C(c1ccc(F)cc1)C1CCC(CNC(=O)c2ccccc2N(C)S(=O)(=O)c2ccc(Cl)c(Cl)c2)CC1 (stereo not drawn) [Example 40, 2-[(3,4-dichloro-benzenesulfonyl)-methyl-amino]-N-{4-[dimethylamino-(4-fluoro-phenyl)-methyl]-cyclohexylmethyl}-benzamide]
inhibition at 10 µM [1]: 20%
inhibition at 10 µM [2]: 17.1%

CN(C)C(c1ccc(Cl)cc1)C1CCC(CNC(=O)c2ccccc2N(C)S(=O)(=O)c2ccc(Cl)c(Cl)c2)CC1 (stereo not drawn) [Example 41, N-{4-[(4-chloro-phenyl)-dimethylamino-methyl]-cyclohexylmethyl}-2-[(3,4-dichloro-benzenesulfonyl)-methyl-amino]-benzamide]
inhibition at 10 µM [1]: 25%
inhibition at 10 µM [2]: 22%
